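Five compound concentrations were applied to cells in 96-well plates for 48 hours; endpoints were derived by simple linear interpolation of the resulting dose-response curve. TGI is the concentration that stops growth completely.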
How the values were obtained:
Assay in all cases: NCI anticancer screen, dose series, 48 h
MDA-MB-435 = tested on: MDA-MB-435
KM12 colon = tested on: KM12 colon
EKVX NSCLC = tested on: EKVX NSCLC
K-562 leukemia = tested on: K-562 leukemia
HCT-15 colon = tested on: HCT-15 colon
HCT-116 colon = tested on: HCT-116 colon
NCI-H522 lung = tested on: NCI-H522 lung
MALME-3M melanoma = tested on: MALME-3M melanoma
A498 renal = tested on: A498 renal
U251 CNS = tested on: U251 CNS
ACHN renal = tested on: ACHN renal
MDA-N = tested on: MDA-N
SN12C renal = tested on: SN12C renal
IGROV1 ovarian = tested on: IGROV1 ovarian
T-47D breast = tested on: T-47D breast
SW-620 colon = tested on: SW-620 colon
UACC-62 melanoma = tested on: UACC-62 melanoma
HCC-2998 colon = tested on: HCC-2998 colon
SK-MEL-2 melanoma = tested on: SK-MEL-2 melanoma
CCRF-CEM leukemia = tested on: CCRF-CEM leukemia
HS 578T breast = tested on: HS 578T breast
A549 NSCLC = tested on: A549 NSCLC
UACC-257 melanoma = tested on: UACC-257 melanoma
CAKI-1 renal = tested on: CAKI-1 renal
UO-31 renal = tested on: UO-31 renal
BT-549 breast = tested on: BT-549 breast
HOP-62 NSCLC = tested on: HOP-62 NSCLC
NCI-H460 lung = tested on: NCI-H460 lung
SR leukemia = tested on: SR leukemia
RXF 393 renal = tested on: RXF 393 renal
NCI-H226 lung = tested on: NCI-H226 lung
OVCAR-3 ovarian = tested on: OVCAR-3 ovarian
LOX IMVI melanoma = tested on: LOX IMVI melanoma
OVCAR-4 ovarian = tested on: OVCAR-4 ovarian
NCI-H23 lung = tested on: NCI-H23 lung
HL-60(TB) leukemia = tested on: HL-60(TB) leukemia
NCI/ADR-RES ovarian = tested on: NCI/ADR-RES ovarian
M14 melanoma = tested on: M14 melanoma
MDA-MB-231 breast = tested on: MDA-MB-231 breast
SK-MEL-5 melanoma = tested on: SK-MEL-5 melanoma
MCF7 breast = tested on: MCF7 breast
SF-295 CNS = tested on: SF-295 CNS
SNB-19 CNS = tested on: SNB-19 CNS
TK-10 renal = tested on: TK-10 renal
PC-3 prostate = tested on: PC-3 prostate
SF-268 CNS = tested on: SF-268 CNS
SNB-75 CNS = tested on: SNB-75 CNS
OVCAR-8 ovarian = tested on: OVCAR-8 ovarian
HOP-92 NSCLC = tested on: HOP-92 NSCLC
SF-539 CNS = tested on: SF-539 CNS
DU-145 prostate = tested on: DU-145 prostate
HT29 colon = tested on: HT29 colon
RPMI-8226 leukemia = tested on: RPMI-8226 leukemia
MOLT-4 leukemia = tested on: MOLT-4 leukemia
SK-OV-3 ovarian = tested on: SK-OV-3 ovarian
OVCAR-5 ovarian = tested on: OVCAR-5 ovarian
786-0 renal = tested on: 786-0 renal
COLO 205 colon = tested on: COLO 205 colon

**Q.** What does the source list for `CCCCc1ccc(Nc2ncc3ncn(COCCO)c3n2)cc1`?
**A.** TGI (MDA-MB-435): 87.5 µM; TGI (KM12 colon): 99.1 µM; TGI (EKVX NSCLC): 88.7 µM; TGI (K-562 leukemia): 52.7 µM; TGI (HCT-15 colon): > 100 µM; TGI (HCT-116 colon): 65.4 µM; TGI (NCI-H522 lung): > 100 µM; TGI (MALME-3M melanoma): 68.4 µM; TGI (A498 renal): > 100 µM; TGI (U251 CNS): > 100 µM; TGI (ACHN renal): > 100 µM; TGI (MDA-N): > 100 µM; TGI (SN12C renal): > 100 µM; TGI (IGROV1 ovarian): > 100 µM; TGI (T-47D breast): > 100 µM; TGI (SW-620 colon): > 100 µM; TGI (UACC-62 melanoma): 77.7 µM; TGI (HCC-2998 colon): 40.7 µM; TGI (SK-MEL-2 melanoma): 73.1 µM; TGI (CCRF-CEM leukemia): 60.6 µM; TGI (HS 578T breast): 83.7 µM; TGI (A549 NSCLC): > 100 µM; TGI (UACC-257 melanoma): 72.5 µM; TGI (CAKI-1 renal): > 100 µM; TGI (UO-31 renal): 59.1 µM; TGI (BT-549 breast): > 100 µM; TGI (HOP-62 NSCLC): > 100 µM; TGI (NCI-H460 lung): 57.9 µM; TGI (SR leukemia): 52.5 µM; TGI (RXF 393 renal): 86.6 µM; TGI (NCI-H226 lung): > 100 µM; TGI (OVCAR-3 ovarian): 90.9 µM; TGI (LOX IMVI melanoma): 39.7 µM; TGI (OVCAR-4 ovarian): > 100 µM; TGI (NCI-H23 lung): > 100 µM; TGI (HL-60(TB) leukemia): 50 µM; TGI (NCI/ADR-RES ovarian): > 100 µM; TGI (M14 melanoma): 53 µM; TGI (MDA-MB-231 breast): 57.4 µM; TGI (SK-MEL-5 melanoma): 49.6 µM; TGI (MCF7 breast): > 100 µM; TGI (SF-295 CNS): 80.1 µM; TGI (SNB-19 CNS): > 100 µM; TGI (TK-10 renal): > 100 µM; TGI (PC-3 prostate): > 100 µM; TGI (SF-268 CNS): > 100 µM; TGI (SNB-75 CNS): 65.3 µM; TGI (OVCAR-8 ovarian): > 100 µM; TGI (HOP-92 NSCLC): 92.8 µM; TGI (SF-539 CNS): > 100 µM; TGI (DU-145 prostate): > 100 µM; TGI (HT29 colon): 50 µM; TGI (RPMI-8226 leukemia): 50 µM; TGI (MOLT-4 leukemia): 53.1 µM; TGI (SK-OV-3 ovarian): > 100 µM; TGI (OVCAR-5 ovarian): > 100 µM; TGI (786-0 renal): > 100 µM; TGI (COLO 205 colon): > 100 µM
